Experimental data: patent publication US10092551B2, “Spiro-thiazolones” (Hoffmann-La Roche Inc., priority 2014, dated 2018)

Each molecule was assayed against human V1a receptor (Homo sapiens (Human), UniProt P37288) (assay: human V1a receptor binding studies (3H-Vasopressin, SPA beads)). Conditions: membranes of HEK293 cells transiently transfected with human V1a receptor, Ki by Cheng-Prussoff.
Method in brief: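 Membranes from HEK293 cells transiently expressing cloned human V1a receptor, bound on yttrium silicate SPA beads with 4 nM 3H-vasopressin (added stock) and serially diluted compound, 1 h at room temperature. Non-specific binding defined with cold vasopressin; IC50 by non-linear regression, Ki via Cheng-Prusoff.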

Sequence of human V1a receptor (P37288 whole entry): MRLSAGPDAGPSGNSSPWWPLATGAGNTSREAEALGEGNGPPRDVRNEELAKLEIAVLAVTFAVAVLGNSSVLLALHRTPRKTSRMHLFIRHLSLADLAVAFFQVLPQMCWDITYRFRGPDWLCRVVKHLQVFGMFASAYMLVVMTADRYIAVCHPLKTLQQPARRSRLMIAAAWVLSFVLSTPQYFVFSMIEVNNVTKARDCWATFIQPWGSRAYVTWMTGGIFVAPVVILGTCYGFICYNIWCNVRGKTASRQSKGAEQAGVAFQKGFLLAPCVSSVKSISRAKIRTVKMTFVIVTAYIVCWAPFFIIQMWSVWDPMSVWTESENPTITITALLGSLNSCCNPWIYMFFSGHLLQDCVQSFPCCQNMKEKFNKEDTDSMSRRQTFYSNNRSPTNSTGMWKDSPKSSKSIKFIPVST

| pKi hV1a | Structure (SMILES) |
| --- | --- |
| 8.7 | O=C1N=C(N2CCC3(CC2)OCc2ccccc23)S/C1=C1/CCNC(=O)c2cc(Cl)ccc21 [Example 67, (5E/Z)-8-chloro-5-[4-oxo-2-(1′H,3H-spiro[2-benzofuran-1,4′-piperidin]-1′-yl)-1,3-thiazol-5(4H)-ylidene]-2,3,4,5-tetrahydro-1H-2-benzazepin-1-one] |
| 7.8 | O=C1N=C(N2CCC3(CC2)OCc2ccccc23)S/C1=C\c1ccc(Cl)cc1 [Example 8, (5Z)-5-(4-chlorobenzylidene)-2-(1′H,3H-spiro[2-benzofuran-1,4′-piperidin]-1′-yl)-1,3-thiazol-4(5H)-one] |
| 8.3 | O=C1N=C(N2CCC3(CC2)OCc2ccccc23)S/C1=C1/CCc2ccccc21 [Example 46, (5Z)-5-(2,3-dihydro-1H-inden-1-ylidene)-2-(1′H,3H-spiro[2-benzofuran-1,4′-piperidin]-1′-yl)-1,3-thiazol-4(5H)-one] |
| 9.0 | O=C1N=C(N2CCC3(CC2)OCc2ccccc23)S/C1=C1/CCCc2ccc(Cl)cc21 [Example 20, (5E/Z)-5-(7-chloro-3,4-dihydronaphthalen-1 (2H)-ylidene)-2-(1′H,3H-spiro[2-benzofuran-1,4′-piperidin]-1′-yl)-1,3-thiazol-4(5H)-one] |

The next lines start with the molecule.

| Structure (SMILES) | pKi hV1a |
| --- | --- |
| C/C(=C1/SC(N2CCC3(CC2)OCc2ccccc23)=NC1=O)c1cccnc1F [Example 61, (5Z)-5-[1-(2-fluoropyridin-3-yl)ethylidene]-2-(1′H,3H-spiro[2-benzofuran-1,4′-piperidin]-1′-yl)-1,3-thiazol-4(5H)-one] | 9.1 |
| CC(C)(C)[Si](C)(C)OC/C(=C1\SC(N2CCC3(CC2)OC(=O)c2ccccc23)=NC1=O)c1ccc(Cl)nc1 [Example 146, 1′-{(5Z)-5-[2-{[tert-butyl(dimethyl)silyl]oxy}-1-(6-chloropyridin-3-yl)ethylidene]-4-oxo-4,5-dihydro-1,3-thiazol-2-yl}-3H-spiro[2-benzofuran-1,4′-piperidin]-3-one] | 7.3 |
| O=C1N=C(N2CCC3(CC2)OCc2ccccc23)SC1=C1Cc2ccccc2C1 [Example 161, 5-(1,3-dihydro-2H-inden-2-ylidene)-2-(1′H,3H-spiro[2-benzofuran-1,4′-piperidin]-1′-yl)-1,3-thiazol-4(5H)-one] | 7.8 |
| CS(=O)(=O)N1CCC(=C2SC(N3CCC4(CC3)OCc3ccccc34)=NC2=O)CC1 [Example 68, 5-[1-(methylsulfonyl)piperidin-4-ylidene]-2-(1′H,3H-spiro[2-benzofuran-1,4′-piperidin]-1′-yl)-1,3-thiazol-4(5H)-one] | 7.7 |
| C/C(=C1/SC(N2CCC3(CC2)OCc2ccccc23)=NC1=O)C(F)(F)F [Example 71, (5Z)-2-(1′H,3H-spiro[2-benzofuran-1,4′-piperidin]-1′-yl)-5-(1,1,1-trifluoropropan-2-ylidene)-1,3-thiazol-4(5H)-one] | 8.3 |
| CC/C(=C1\SC(N2CCC3(CC2)OC(=O)c2ccccc23)=NC1=O)c1ccc(Cl)nc1 [Example 149, 1′-{(5E)-5-[1-(6-chloropyridin-3-yl)propylidene]-4-oxo-4,5-dihydro-1,3-thiazol-2-yl}-3H-spiro[2-benzofuran-1,4′-piperidin]-3-one] | 8.2 |
| CC/C(=C1\SC(N2CCC3(CC2)OCc2ccccc23)=NC1=O)c1ccc(Cl)nc1 [Example 134, (5E)-5-[1-(6-chloropyridin-3-yl)propylidene]-2-(1′H,3H-spiro[2-benzofuran-1,4′-piperidin]-1′-yl)-1,3-thiazol-4(5H)-one] | 8.0 |
| COCC(COC)=C1SC(N2CCC3(CC2)OCc2ccccc23)=NC1=O [Example 15, 5-(1,3-dimethoxypropan-2-ylidene)-2-(1′H,3H-spiro[2-benzofuran-1,4′-piperidin]-1′-yl)-1,3-thiazol-4(5H)-one] | 8.8 |
| CC(C)(C)OC(=O)N1CCC/C(=C2/SC(N3CCC4(CC3)OCc3ccccc34)=NC2=O)C1 [Example 88, tert-butyl (3E/Z)-3-[4-oxo-2-(1′H,3H-spiro[2-benzofuran-1,4′-piperidin]-1′-yl)-1,3-thiazol-5(4H)-ylidene]piperidine-1-carboxylate] | 6.7 |
